US20240124491A1, “METHODS AND COMPOUNDS FOR TREATING FRIEDREICH'S ATAXIA” (Design Therapeutics, Inc., priority 2021, published 2024)

Tested on: human FXN
Assay: EC50 assay: FXN mRNA expression by qRT-PCR in GM15850 cells after 48 hrs compound treatment
Assay type: cell-based
Details: Homo sapiens, 48 hrs incubation, hFXN expression normalized to hGAPDH (qRT-PCR), read-out: EC50 WT (nM, 48 hr)
Procedure: Cell culture: Cells were cultured in RPMI1640 medium+15% FBS. Cells were maintained at a density between 2e5/mL and 1e6/mL. Cells were centrifuged, resuspended in fresh medium, counted and plated at 150,000 cells per well in 100 uL in a non-coated, flat bottom tissue culture plate.
Compound treatment: 10 mM stock solution of FA GeneTAC was diluted 1:10 in DMSO followed by a 1:100 dilution in growth medium. Working solution was then further diluted to 10× desired final concentration of 150 nM. Compound was then diluted at a 1:3 ratio into growth medium containing 0.01% DMSO. 5-point, 3-fold dose response curve was generated. 11 μL of 1OX compound was added to wells containing 100 μL cell suspension of GM15850. 11 μL growth medium containing 0.01% DMSO was added to all wells not treated with FA GeneTAC. Cells were allowed to incubate for 48 hrs prior to cell lysis using guanidine isothiocyanate solution.
RNA isolation: Total RNA was isolated and purified in 384-well column filter plates using chaotropic salt.
qRT-PCR: qRT-PCR reactions were assembled using AgPath-ID reagents (Thermo Fisher) using 6 uL mastermix and 4 μL RNA. qRT-PCR TaqMan primer probe sets against human FXN (Assay ID Hs01075496_m1) and human GAPDH (Assay ID Hs00266705_g1) were used to measure the intended targets. qRT-PCR was run on the ThermoFisher QuantStudio 6 PRO instrument using the manufacturer's recommended cycling conditions.
Data analysis: qPCR data was analyzed using Thermo Fisher Design and Analysis software. Data was exported to Excel and hFXN expression was normalized to hGAPDH expression
A<100 nM; B is 100 nM to 500 nM; C>500 nM.

Compound	EC50 [nM]
Cc1sc2c(c1C)C(c1ccc(Cl)cc1)=N[C@@H](CC(=O)Nc1ccc(C#CC3CCN(CCOCCOCCOCCOCCNC(=O)CCNC(=O)c4nc(NC(=O)CCNC(=O)c5cc(NC(=O)c6nc(NC(=O)CCNC(=O)c7cc(NC(=O)c8nccn8C)cn7C)cn6C)cn5C)cn4C)CC3)cc1)c1nnc(C)n1-2 [Compound 13]	< 100
Cc1sc2c(c1C)C(c1ccc(Cl)cc1)=N[C@@H](CC(=O)Nc1ccc(C#CC#CCNCCOCCOCCOCCOCCOCCOCCNC(=O)CCNC(=O)c3nc(NC(=O)CCNC(=O)c4cc(NC(=O)c5nc(NC(=O)CCNC(=O)c6cc(NC(=O)c7nccn7C)cn6C)cn5C)cn4C)cn3C)cc1)c1nnc(C)n1-2 [Compound 14]	100 to 500
Cc1sc2c(c1C)C(c1ccc(Cl)cc1)=N[C@@H](CC(=O)Nc1ccc(C#CC#CCNCCOCCOCCOCCOCCOCCNC(=O)CCNC(=O)c3nc(NC(=O)CCNC(=O)c4cc(NC(=O)c5nc(NC(=O)CCNC(=O)c6cc(NC(=O)c7nccn7C)cn6C)cn5C)cn4C)cn3C)cc1)c1nnc(C)n1-2 [Compound 15]	< 100
Cc1sc2c(c1C)C(c1ccc(Cl)cc1)=N[C@@H](CC(=O)Nc1ccc(C#CC#CCNCCOCCOCCOCCOCCNC(=O)CCNC(=O)c3nc(NC(=O)CCNC(=O)c4cc(NC(=O)c5nc(NC(=O)CCNC(=O)c6cc(NC(=O)c7nccn7C)cn6C)cn5C)cn4C)cn3C)cc1)c1nnc(C)n1-2 [Compound 16]	< 100
Cc1sc2c(c1C)C(c1ccc(Cl)cc1)=N[C@@H](CC(=O)N1CCN(CC3CCN(CCOCCOCCOCCOCCOCCN4CCC(CN5CCN(C(=O)CCNC(=O)c6nc(NC(=O)CCNC(=O)c7cc(NC(=O)c8nc(NC(=O)CCNC(=O)c9cc(NC(=O)c%10nccn%10C)cn9C)cn8C)cn7C)cn6C)CC5)CC4)CC3)CC1)c1nnc(C)n1-2 [Compound 18]	> 500
Cc1sc2c(c1C)C(c1ccc(Cl)cc1)=N[C@@H](CC(=O)N1CCN(CC3CCN(CCOCCOCCOCCOCCN4CCC(CN5CCN(C(=O)CCNC(=O)c6nc(NC(=O)CCNC(=O)c7cc(NC(=O)c8nc(NC(=O)CCNC(=O)c9cc(NC(=O)c%10nccn%10C)cn9C)cn8C)cn7C)cn6C)CC5)CC4)CC3)CC1)c1nnc(C)n1-2 [Compound 19]	> 500
Cc1sc2c(c1C)C(c1ccc(Cl)cc1)=N[C@@H](CC(=O)N1CCN(CC3CCN(CCOCCOCCOCCN4CCC(CN5CCN(C(=O)CCNC(=O)c6nc(NC(=O)CCNC(=O)c7cc(NC(=O)c8nc(NC(=O)CCNC(=O)c9cc(NC(=O)c%10nccn%10C)cn9C)cn8C)cn7C)cn6C)CC5)CC4)CC3)CC1)c1nnc(C)n1-2 [Compound 20]	> 500
Cc1sc2c(c1C)C(c1ccc(Cl)cc1)=N[C@@H](CC(=O)N[C@H]1CC[C@H](N(C)CCOCCOCCOCCN3CCN(CCOCCOCCOCCNC(=O)CCNC(=O)c4nc(NC(=O)CCNC(=O)c5cc(NC(=O)c6nc(NC(=O)CCNC(=O)c7cc(NC(=O)c8nccn8C)cn7C)cn6C)cn5C)cn4C)CC3)CC1)c1nnc(C)n1-2 [Compound 21]	> 500
Cc1sc2c(c1C)C(c1ccc(Cl)cc1)=N[C@@H](CC(=O)N[C@H]1CC[C@H](N(C)CCOCCOCCOCCOCCOCCOCCOCCOCCNC(=O)CCNC(=O)c3nc(NC(=O)CCNC(=O)c4cc(NC(=O)c5nc(NC(=O)CCNC(=O)c6cc(NC(=O)c7nccn7C)cn6C)cn5C)cn4C)cn3C)CC1)c1nnc(C)n1-2 [Compound 22]	< 100
Cc1sc2c(c1C)C(c1ccc(Cl)cc1)=N[C@@H](CC(=O)NC1CCN(CCOCCOCCOCCN3CCN(CCOCCOCCOCCNC(=O)CCNC(=O)c4nc(NC(=O)CCNC(=O)c5cc(NC(=O)c6nc(NC(=O)CCNC(=O)c7cc(NC(=O)c8nccn8C)cn7C)cn6C)cn5C)cn4C)CC3)CC1)c1nnc(C)n1-2 [Compound 23]	100 to 500
COc1ccc2c(c1)C(c1ccc(Cl)cc1)=N[C@@H](CC(=O)NC1CCN(CCOCCOCCOCCN3CCN(CCOCCOCCOCCNC(=O)CCNC(=O)c4nc(NC(=O)CCNC(=O)c5cc(NC(=O)c6nc(NC(=O)CCNC(=O)c7cc(NC(=O)c8nccn8C)cn7C)cn6C)cn5C)cn4C)CC3)CC1)c1nnc(C)n1-2 [Compound 24]	100 to 500
Cc1sc2c(c1C)C(c1ccc(Cl)cc1)=N[C@@H](CC(=O)N1CC3(CCN(CCOCCOCCOCCN4CCN(CCOCCOCCOCCNC(=O)CCNC(=O)c5nc(NC(=O)CCNC(=O)c6cc(NC(=O)c7nc(NC(=O)CCNC(=O)c8cc(NC(=O)c9nccn9C)cn8C)cn7C)cn6C)cn5C)CC4)CC3)C1)c1nnc(C)n1-2 [Compound 25]	> 500
COc1ccc2c(c1)C(c1ccc(Cl)cc1)=N[C@@H](CC(=O)N1CC3(CCN(CCOCCOCCOCCN4CCN(CCOCCOCCOCCNC(=O)CCNC(=O)c5nc(NC(=O)CCNC(=O)c6cc(NC(=O)c7nc(NC(=O)CCNC(=O)c8cc(NC(=O)c9nccn9C)cn8C)cn7C)cn6C)cn5C)CC4)CC3)C1)c1nnc(C)n1-2 [Compound 26]	> 500
Cc1sc2c(c1C)C(c1ccc(Cl)cc1)=N[C@@H](CC(=O)N1CCN(CCOCCOCCOCCN3CCN(CCOCCOCCOCCNC(=O)CCNC(=O)c4nc(NC(=O)CCNC(=O)c5cc(NC(=O)c6nc(NC(=O)CCNC(=O)c7cc(NC(=O)c8nccn8C)cn7C)cn6C)cn5C)cn4C)CC3)CC1)c1nnc(C)n1-2 [Compound 27]	> 500
COc1ccc2c(c1)C(c1ccc(Cl)cc1)=N[C@@H](CC(=O)N1CCN(CCOCCOCCOCCN3CCN(CCOCCOCCOCCNC(=O)CCNC(=O)c4nc(NC(=O)CCNC(=O)c5cc(NC(=O)c6nc(NC(=O)CCNC(=O)c7cc(NC(=O)c8nccn8C)cn7C)cn6C)cn5C)cn4C)CC3)CC1)c1nnc(C)n1-2 [Compound 28]	> 500
Cc1sc2c(c1C)C(c1ccc(Cl)cc1)=N[C@@H](CC(=O)NC1CCN(CCOCCOCCOCCN3CCN(CCN4CCN(CCOCCNC(=O)CCNC(=O)c5nc(NC(=O)CCNC(=O)c6cc(NC(=O)c7nc(NC(=O)CCNC(=O)c8cc(NC(=O)c9nccn9C)cn8C)cn7C)cn6C)cn5C)CC4)CC3)CC1)c1nnc(C)n1-2 [Compound 29]	> 500
Cc1sc2c(c1C)C(c1ccc(Cl)cc1)=N[C@@H](CC(=O)NC1CCN(CCOCCOCCOCCN3CCN(CC4CCN(CCOCCNC(=O)CCNC(=O)c5nc(NC(=O)CCNC(=O)c6cc(NC(=O)c7nc(NC(=O)CCNC(=O)c8cc(NC(=O)c9nccn9C)cn8C)cn7C)cn6C)cn5C)CC4)CC3)CC1)c1nnc(C)n1-2 [Compound 33]	> 500
COc1ccc2c(c1)C(c1ccc(Cl)cc1)=N[C@@H](CC(=O)NC1CCN(CCOCCOCCOCCN3CCN(CC4CCN(CCOCCNC(=O)CCNC(=O)c5nc(NC(=O)CCNC(=O)c6cc(NC(=O)c7nc(NC(=O)CCNC(=O)c8cc(NC(=O)c9nccn9C)cn8C)cn7C)cn6C)cn5C)CC4)CC3)CC1)c1nnc(C)n1-2 [Compound 34]	> 500
Cc1sc2c(c1C)C(c1ccc(Cl)cc1)=N[C@@H](CC(=O)NC1CCN(CCOCCN3CCC(CN4CCN(CCOCCOCCOCCNC(=O)CCNC(=O)c5nc(NC(=O)CCNC(=O)c6cc(NC(=O)c7nc(NC(=O)CCNC(=O)c8cc(NC(=O)c9nccn9C)cn8C)cn7C)cn6C)cn5C)CC4)CC3)CC1)c1nnc(C)n1-2 [Compound 35]	100 to 500
Cc1sc2c(c1C)C(c1ccc(Cl)cc1)=N[C@H](CC(=O)NC1CCN(CCOCCOCCOCCOCCOCCC(=O)NCCCN(C)CCCNC(=O)CCNC(=O)c3nc(NC(=O)CCNC(=O)c4cc(NC(=O)c5nc(NC(=O)CCNC(=O)c6cc(NC(=O)c7nccn7C)cn6C)cn5C)cn4C)cn3C)CC1)c1nnc(C)n1-2 [Compound 39]	> 500
Cc1sc2c(c1C)C(c1ccc(Cl)cc1)=N[C@@H](CC(=O)N1CCC(C#CC#CCNCCOCCOCCOCCOCCOCCNC(=O)CCNC(=O)c3nc(NC(=O)CCNC(=O)c4cc(NC(=O)c5nc(NC(=O)CCNC(=O)c6cc(NC(=O)c7nccn7C)cn6C)cn5C)cn4C)cn3C)CC1)c1nnc(C)n1-2 [Compound 40]	< 100
COc1ccc2c(c1)C(c1ccc(Cl)cc1)=N[C@@H](CC(=O)N1CCC(C#CC#CCNCCOCCOCCOCCOCCOCCNC(=O)CCNC(=O)c3nc(NC(=O)CCNC(=O)c4cc(NC(=O)c5nc(NC(=O)CCNC(=O)c6cc(NC(=O)c7nccn7C)cn6C)cn5C)cn4C)cn3C)CC1)c1nnc(C)n1-2 [Compound 41]	< 100
Cc1sc2c(c1C)C(c1ccc(Cl)cc1)=N[C@@H](CC(=O)Nc1ccc(C#CC#CCN(CCN3CCN(C)CC3)C(=O)COCCOCCOCCOCCOCCNC(=O)CCNC(=O)c3nc(NC(=O)CCNC(=O)c4cc(NC(=O)c5nc(NC(=O)CCNC(=O)c6cc(NC(=O)c7nccn7C)cn6C)cn5C)cn4C)cn3C)cc1)c1nnc(C)n1-2 [Compound 42]	< 100
Cc1sc2c(c1C)C(c1ccc(Cl)cc1)=N[C@@H](CC(=O)Nc1ccc(C#CC#CCN(CCOCCOCCOCCOCCOCCNC(=O)CCNC(=O)c3nc(NC(=O)CCNC(=O)c4cc(NC(=O)c5nc(NC(=O)CCNC(=O)c6cc(NC(=O)c7nccn7C)cn6C)cn5C)cn4C)cn3C)CCC3CCN(C)CC3)cc1)c1nnc(C)n1-2 [Compound 43]	100 to 500
COc1ccc2c(c1)C(c1ccc(Cl)cc1)=N[C@@H](CC(=O)N1CCN(CC3CCN(CCOCCOCCOCCOCCOCCOCCOCCNC(=O)CCNC(=O)c4nc(NC(=O)CCNC(=O)c5cc(NC(=O)c6nc(NC(=O)CCNC(=O)c7cc(NC(=O)c8nccn8C)cn7C)cn6C)cn5C)cn4C)CC3)CC1)c1nnc(C)n1-2 [Compound 46]	> 500
